Activity calls are given as the source filed them. The rule behind the calls is not given here.
Legend:
HCT-116 [1] = assay: cells; details: Homo sapiens
Description: Effect on cell cycle progression in human HCT116 cells assessed as mitotic arrest measured by doubling DNA content by High content screening

[2] = biological target: Serine/threonine-protein kinase PLK1 (Homo sapiens, UniProt P53350)
[3] = Selectivity for Plk1 over Aurora A
[4] = Selectivity for Plk1 over Plk3
HeLa = assay: Decrease in B23 nucleophosmin phosphorylation in human HeLa cells at 5 uM after 16 hrs by Western blot analysis; type: functional, cell-based
HCT-116 [5] = assay: cells; details: Homo sapiens; remark: listed apart in the source
Description: Effect on cell cycle progression in human HCT116 cells assessed as mitotic arrest measured by doubling DNA content by fluorescence microscopy

[6] = Selectivity for Plk1 over Plk2
HCT-116 [7] = assay: cells; details: Homo sapiens; remark: listed apart in the source
Description: Effect on cell cycle progression in human HCT116 cells assessed as increase in phospho-histone H3 by fluorescence microscopy

Serine/threonine-protein kinase PLK1, sequence (P53350 whole entry): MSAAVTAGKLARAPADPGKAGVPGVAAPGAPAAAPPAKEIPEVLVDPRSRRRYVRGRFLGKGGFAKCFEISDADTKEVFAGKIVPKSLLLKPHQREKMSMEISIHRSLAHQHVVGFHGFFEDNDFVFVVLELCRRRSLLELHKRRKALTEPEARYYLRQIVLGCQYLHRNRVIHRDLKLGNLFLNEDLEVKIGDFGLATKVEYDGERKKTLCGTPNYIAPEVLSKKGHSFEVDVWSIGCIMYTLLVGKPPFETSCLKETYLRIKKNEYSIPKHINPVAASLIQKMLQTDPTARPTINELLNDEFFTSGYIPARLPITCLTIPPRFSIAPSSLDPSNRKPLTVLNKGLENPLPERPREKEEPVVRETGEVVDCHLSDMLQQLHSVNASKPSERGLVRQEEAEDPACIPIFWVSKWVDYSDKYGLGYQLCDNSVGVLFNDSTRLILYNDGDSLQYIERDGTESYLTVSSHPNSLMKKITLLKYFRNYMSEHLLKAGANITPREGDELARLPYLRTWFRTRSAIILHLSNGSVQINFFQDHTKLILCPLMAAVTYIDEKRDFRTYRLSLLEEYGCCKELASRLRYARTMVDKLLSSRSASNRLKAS

Structure (SMILES) | EC50 (HCT-116 [1]) [µM] | IC50 [2] [nM] | also measured
CC(=O)Nc1ccccc1-c1cc(Cl)cc(-n2nc(C)c3cnc(N[C@@H](C)c4ccccc4)cc32)c1 | > 20 | 207 | 
Cc1nn(-c2cc(Cl)cc(CCC(N)=O)c2)c2cc(N[C@@H](C)c3ccccc3)ncc12 | 9.35 | 32 | 
Cc1nn(-c2cccc(Cl)c2)c2cc(N[C@@H](C)c3ccccc3)ncc12 | > 20 |  | 
Cc1ccc(-n2nc(C)c3cnc(N[C@@H](C)c4ccccc4)cc32)cc1 |  | 4530 | 
Cc1nn(-c2ccccc2F)c2cc(N[C@@H](C)c3ccccc3)ncc12 |  | 4520 | 
Cc1nn(-c2cccc(N(C)C)c2)c2cc(N[C@@H](C)c3ccccc3)ncc12 |  | 977 | 
Cc1nn(-c2cccc(C(C)C)c2)c2cc(N[C@@H](C)c3ccccc3)ncc12 |  | 1480 | 
COc1cccc(-n2nc(C)c3cnc(N[C@@H](C)c4ccccc4)cc32)c1 |  | 5930 | 
Cc1nn(-c2ccc(F)cc2)c2cc(N[C@@H](C)c3ccccc3)ncc12 |  | 3240 | 
COc1ccc(-n2nc(C)c3cnc(N[C@@H](C)c4ccccc4)cc32)cc1 |  | 703 | 
CCOC(=O)C1=C(C)NC(=S)NC1c1cccc(O)c1 (centres undefined) [MONASTROL] |  |  | EC50 (HCT-116 [5]): 1200 nM; EC50 (HCT-116 [7]): 1500 nM
Cc1nn(-c2cc(Cl)cc(CCC(=O)O)c2)c2cc(N[C@@H](C)c3ccccc3)ncc12 | > 20 | 21 | 
Cc1ccccc1-n1nc(C)c2cnc(N[C@@H](C)c3ccccc3)cc21 |  | 7690 | 
COc1ccccc1-n1nc(C)c2cnc(N[C@@H](C)c3ccccc3)cc21 |  | 14500 | 

Further molecules by falling IC50 [2], results first:

EC50 (HCT-116 [1]) [µM] | IC50 [2] [nM] | Structure (SMILES) | also measured
 | 641 | Cc1nn(-c2cc(Cl)cc(Cl)c2)c2cc(N[C@@H](C)c3ccccc3)ncc12 | 
 | 474 | Cc1cccc(-n2nc(C)c3cnc(N[C@@H](C)c4ccccc4)cc32)c1 | 
 | 464 | Cc1nn(-c2cccc(F)c2)c2cc(N[C@@H](C)c3ccccc3)ncc12 | 
 | 412 | Cc1nn(-c2cccc(C#N)c2)c2cc(N[C@@H](C)c3ccccc3)ncc12 | 
 | 274 | Cc1nn(-c2cc(Cl)cc(Br)c2)c2cc(N[C@@H](C)c3ccccc3)ncc12 | 
 | 225 | Cc1nn(-c2cccc(S(C)(=O)=O)c2)c2cc(N[C@@H](C)c3ccccc3)ncc12 | 
 | 149 | Cc1cc(C)cc(-n2nc(C)c3cnc(N[C@@H](C)c4ccccc4)cc32)c1 | 
5.8 | 59 | Cc1nn(-c2cc(Cl)cc(CCCN)c2)c2cc(N[C@@H](C)c3ccccc3)ncc12 | 
2.43 | 50 | C[C@H](Nc1cc2c(cn1)cnn2-c1ccccc1C(N)=O)c1ccccc1 | Selectivity ratio [3]: 150; Selectivity ratio [4]: 50; Activity (HeLa): Active; EC50 (HCT-116 [5]): 1900 nM; Selectivity ratio [6]: 50; EC50 (HCT-116 [7]): 1700 nM
9.2 | 48 | Cc1nn(-c2cc(Cl)cc(CCC(=O)NCCO)c2)c2cc(N[C@@H](C)c3ccccc3)ncc12 | 
3.64 | 42 | Cc1nn(-c2ccccc2C(N)=O)c2cc(N[C@@H](C)c3ccccc3)ncc12 | 

Reference: ChEMBL document CHEMBL1141724, “Design and synthesis of 2-amino-pyrazolopyridines as Polo-like kinase 1 inhibitors” (Bioorg Med Chem Lett, 2008)
